Laboratory results taken from patent publication EP4631960A1, “PEPTIDE HAVING INHIBITORY ACTIVITY AGAINST OSTEOCLAST DIFFERENTIATION, AND USE THEREOF” (Caregen Co., Ltd., priority 2022, dated 2024).
Peptide text beside a SMILES is read from it.

Tested on: RAW264.7 cells
Assay: CCK-8 cytotoxicity evaluation
Format: cell-based
Conditions: CCK-8 activity at 450 nm, after 3 days, FIG. 3
Method: Then, after 3 days, CCK-8 (Dojindo, CCK-8 kit) solution was added to 1/10 volume of the culture medium, diluted, and incubated for 2 hours. Thereafter, the culture medium was sampled and CCK-8 activity was confirmed at a wavelength of 450 nm using a microplate reader.

`CC[C@H](C)[C@H](N)C(=O)N[C@H](C(=O)N[C@@H](C)C(=O)N1CCC[C@H]1C(=O)N[C@H](C(=O)NCC(=O)N[C@@H](Cc1ccc(O)cc1)C(=O)N[C@@H](Cc1ccc(O)cc1)C(=O)NCC(=O)N[C@@H](CC(N)=O)C(=O)O)[C@@H](C)O)[C@@H](C)CC` [Peptide-2, IIAPTGYYGN] (H-IIAPTGYYGN-OH) was tested, and the cytotoxicity was “did not exhibit cytotoxicity”.
